Experiments:
KDM5D = KDM5D (Homo sapiens, UniProt Q9BY66); assay: AlphaScreen in vitro demethylase assay; assay type: biochemical; details: IC50 ± SD (number of replicates)
Method: IC50 values were determined as previously described. The following amendments were made to the protocol for carrying out 2-OG competition assays.

KDM5B = KDM5B (Homo sapiens, UniProt Q9UGL1); set-up: method as in PMID 26741168; details: AlphaScreen; in vitro biochemical profiling previously reported; cited from earlier work
KDM5B, sequence (Q9UGL1 whole entry): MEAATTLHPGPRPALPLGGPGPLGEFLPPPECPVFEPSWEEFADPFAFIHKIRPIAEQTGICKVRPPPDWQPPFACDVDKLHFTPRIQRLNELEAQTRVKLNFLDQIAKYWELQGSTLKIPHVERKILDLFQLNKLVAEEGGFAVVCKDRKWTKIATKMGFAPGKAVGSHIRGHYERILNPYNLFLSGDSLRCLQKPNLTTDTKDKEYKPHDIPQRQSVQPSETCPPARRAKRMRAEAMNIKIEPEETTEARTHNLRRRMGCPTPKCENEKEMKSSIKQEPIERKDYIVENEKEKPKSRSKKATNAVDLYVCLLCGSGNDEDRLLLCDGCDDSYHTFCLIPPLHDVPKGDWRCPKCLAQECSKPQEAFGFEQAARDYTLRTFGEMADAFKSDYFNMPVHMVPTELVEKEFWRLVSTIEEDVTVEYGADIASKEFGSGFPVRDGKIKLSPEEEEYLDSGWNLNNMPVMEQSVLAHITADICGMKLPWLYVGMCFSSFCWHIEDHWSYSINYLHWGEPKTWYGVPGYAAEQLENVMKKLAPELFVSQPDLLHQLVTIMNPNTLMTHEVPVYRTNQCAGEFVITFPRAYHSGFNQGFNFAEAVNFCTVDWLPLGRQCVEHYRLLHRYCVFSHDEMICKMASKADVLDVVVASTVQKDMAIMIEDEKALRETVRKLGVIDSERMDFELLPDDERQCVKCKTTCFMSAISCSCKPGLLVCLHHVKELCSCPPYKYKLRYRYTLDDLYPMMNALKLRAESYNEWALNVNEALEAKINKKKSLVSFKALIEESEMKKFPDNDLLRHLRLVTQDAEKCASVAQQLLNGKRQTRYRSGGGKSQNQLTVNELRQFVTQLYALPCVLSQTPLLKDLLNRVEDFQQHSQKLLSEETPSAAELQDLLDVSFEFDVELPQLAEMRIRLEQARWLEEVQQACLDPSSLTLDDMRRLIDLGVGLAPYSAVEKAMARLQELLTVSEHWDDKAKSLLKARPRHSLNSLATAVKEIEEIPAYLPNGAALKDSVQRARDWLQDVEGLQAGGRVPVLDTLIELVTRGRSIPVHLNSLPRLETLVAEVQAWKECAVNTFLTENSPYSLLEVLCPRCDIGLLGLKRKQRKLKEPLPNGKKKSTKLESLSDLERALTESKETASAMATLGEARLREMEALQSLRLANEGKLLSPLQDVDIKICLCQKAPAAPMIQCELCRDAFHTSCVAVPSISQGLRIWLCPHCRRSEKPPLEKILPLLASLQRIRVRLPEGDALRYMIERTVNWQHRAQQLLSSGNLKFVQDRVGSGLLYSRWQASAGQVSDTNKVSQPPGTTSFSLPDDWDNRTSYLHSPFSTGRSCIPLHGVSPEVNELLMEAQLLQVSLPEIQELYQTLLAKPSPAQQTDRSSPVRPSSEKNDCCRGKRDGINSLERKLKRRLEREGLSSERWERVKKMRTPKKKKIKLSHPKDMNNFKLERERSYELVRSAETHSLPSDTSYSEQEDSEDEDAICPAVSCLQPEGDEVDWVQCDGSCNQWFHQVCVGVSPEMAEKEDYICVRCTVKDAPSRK

KDM5C = KDM5C (Homo sapiens, UniProt P41229); set-up: method as in PMID 26741168; details: AlphaScreen; in vitro biochemical profiling previously reported; cited from earlier work
KDM5C, sequence (P41229 whole entry): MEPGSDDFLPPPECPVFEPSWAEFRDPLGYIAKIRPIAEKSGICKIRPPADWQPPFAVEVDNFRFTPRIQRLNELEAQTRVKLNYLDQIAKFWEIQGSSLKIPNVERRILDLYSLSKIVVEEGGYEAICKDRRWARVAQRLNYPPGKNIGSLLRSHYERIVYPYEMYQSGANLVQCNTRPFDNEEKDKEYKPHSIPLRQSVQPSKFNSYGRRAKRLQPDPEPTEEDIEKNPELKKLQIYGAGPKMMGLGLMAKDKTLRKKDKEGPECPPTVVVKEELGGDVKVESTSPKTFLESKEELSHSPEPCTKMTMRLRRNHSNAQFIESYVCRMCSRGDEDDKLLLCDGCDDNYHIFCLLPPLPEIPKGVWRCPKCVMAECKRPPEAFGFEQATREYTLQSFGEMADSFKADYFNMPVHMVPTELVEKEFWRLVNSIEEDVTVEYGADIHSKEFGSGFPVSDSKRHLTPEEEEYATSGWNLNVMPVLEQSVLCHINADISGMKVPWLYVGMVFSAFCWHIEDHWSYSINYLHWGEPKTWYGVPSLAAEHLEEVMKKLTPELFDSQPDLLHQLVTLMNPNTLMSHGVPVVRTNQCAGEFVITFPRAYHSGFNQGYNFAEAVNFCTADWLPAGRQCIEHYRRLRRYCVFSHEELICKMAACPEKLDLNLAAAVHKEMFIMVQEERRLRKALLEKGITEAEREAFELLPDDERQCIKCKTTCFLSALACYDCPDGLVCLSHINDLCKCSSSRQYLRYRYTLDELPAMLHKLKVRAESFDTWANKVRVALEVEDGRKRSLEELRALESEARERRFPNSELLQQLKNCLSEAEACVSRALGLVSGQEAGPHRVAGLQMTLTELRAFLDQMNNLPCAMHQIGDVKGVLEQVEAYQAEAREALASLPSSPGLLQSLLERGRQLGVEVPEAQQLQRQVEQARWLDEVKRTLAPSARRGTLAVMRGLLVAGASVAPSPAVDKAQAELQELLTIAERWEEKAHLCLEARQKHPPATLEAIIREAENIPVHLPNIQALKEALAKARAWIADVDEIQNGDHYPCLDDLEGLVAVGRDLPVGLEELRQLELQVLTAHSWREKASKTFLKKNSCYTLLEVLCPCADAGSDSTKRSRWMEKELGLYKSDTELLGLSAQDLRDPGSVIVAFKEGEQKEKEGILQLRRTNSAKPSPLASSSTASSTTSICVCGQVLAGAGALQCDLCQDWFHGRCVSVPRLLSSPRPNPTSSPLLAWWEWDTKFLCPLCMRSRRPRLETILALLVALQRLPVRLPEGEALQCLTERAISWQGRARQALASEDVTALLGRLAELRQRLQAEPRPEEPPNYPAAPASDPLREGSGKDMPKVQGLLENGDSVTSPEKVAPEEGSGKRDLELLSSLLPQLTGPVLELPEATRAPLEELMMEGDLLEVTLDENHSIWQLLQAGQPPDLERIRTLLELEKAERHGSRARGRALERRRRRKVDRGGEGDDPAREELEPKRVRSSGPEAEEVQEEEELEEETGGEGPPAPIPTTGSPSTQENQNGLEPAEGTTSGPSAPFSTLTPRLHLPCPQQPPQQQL

KDM3A = target: T1, KDM3A (Homo sapiens, UniProt Q9Y4C1); set-up: method as in PMID 26741168; details: AlphaScreen; in vitro biochemical profiling previously reported; cited from earlier work
T1 sequence (Q9Y4C1 1-1321): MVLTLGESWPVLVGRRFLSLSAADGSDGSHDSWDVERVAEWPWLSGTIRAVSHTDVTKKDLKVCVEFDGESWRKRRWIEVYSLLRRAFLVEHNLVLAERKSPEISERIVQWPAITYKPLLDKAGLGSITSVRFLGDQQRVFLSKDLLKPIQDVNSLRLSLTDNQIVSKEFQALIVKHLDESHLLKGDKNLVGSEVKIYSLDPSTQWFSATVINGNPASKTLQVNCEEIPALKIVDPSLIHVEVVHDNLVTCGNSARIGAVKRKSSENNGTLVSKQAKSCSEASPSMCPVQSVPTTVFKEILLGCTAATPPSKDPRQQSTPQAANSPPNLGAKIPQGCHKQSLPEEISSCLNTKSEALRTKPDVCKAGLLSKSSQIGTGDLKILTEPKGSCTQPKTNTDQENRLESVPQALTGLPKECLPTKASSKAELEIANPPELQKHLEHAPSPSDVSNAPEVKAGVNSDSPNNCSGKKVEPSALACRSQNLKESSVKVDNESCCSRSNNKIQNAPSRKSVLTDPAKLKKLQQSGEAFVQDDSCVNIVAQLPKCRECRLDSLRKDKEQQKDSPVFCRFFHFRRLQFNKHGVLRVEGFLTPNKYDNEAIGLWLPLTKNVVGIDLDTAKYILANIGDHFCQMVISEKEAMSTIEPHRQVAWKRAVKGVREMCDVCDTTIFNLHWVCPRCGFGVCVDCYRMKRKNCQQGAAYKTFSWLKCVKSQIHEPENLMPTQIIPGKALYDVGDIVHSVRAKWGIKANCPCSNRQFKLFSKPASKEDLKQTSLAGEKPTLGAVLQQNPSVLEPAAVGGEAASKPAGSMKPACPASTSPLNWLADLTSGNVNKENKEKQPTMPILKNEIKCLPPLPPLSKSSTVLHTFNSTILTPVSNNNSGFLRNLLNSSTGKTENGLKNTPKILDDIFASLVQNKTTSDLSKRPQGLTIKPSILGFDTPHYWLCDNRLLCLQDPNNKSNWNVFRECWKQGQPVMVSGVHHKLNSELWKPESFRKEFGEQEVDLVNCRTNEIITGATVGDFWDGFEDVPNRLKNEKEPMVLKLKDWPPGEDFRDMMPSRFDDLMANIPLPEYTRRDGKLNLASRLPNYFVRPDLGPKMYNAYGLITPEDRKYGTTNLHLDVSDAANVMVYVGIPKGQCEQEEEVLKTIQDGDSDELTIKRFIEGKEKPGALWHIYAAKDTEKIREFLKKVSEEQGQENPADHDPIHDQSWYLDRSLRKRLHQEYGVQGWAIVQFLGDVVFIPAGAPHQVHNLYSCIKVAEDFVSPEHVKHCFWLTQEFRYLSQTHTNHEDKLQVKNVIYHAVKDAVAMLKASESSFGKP

KDM2A = target: T2, KDM2A (Homo sapiens, UniProt Q9Y2K7); set-up: method as in PMID 26741168; details: RapidFire under low iron condition (0.2 mM); previously reported; read-out: KDM2A IC50, in vitro, RapidFire; cited from earlier work
T2 sequence (Q9Y2K7 1-1162): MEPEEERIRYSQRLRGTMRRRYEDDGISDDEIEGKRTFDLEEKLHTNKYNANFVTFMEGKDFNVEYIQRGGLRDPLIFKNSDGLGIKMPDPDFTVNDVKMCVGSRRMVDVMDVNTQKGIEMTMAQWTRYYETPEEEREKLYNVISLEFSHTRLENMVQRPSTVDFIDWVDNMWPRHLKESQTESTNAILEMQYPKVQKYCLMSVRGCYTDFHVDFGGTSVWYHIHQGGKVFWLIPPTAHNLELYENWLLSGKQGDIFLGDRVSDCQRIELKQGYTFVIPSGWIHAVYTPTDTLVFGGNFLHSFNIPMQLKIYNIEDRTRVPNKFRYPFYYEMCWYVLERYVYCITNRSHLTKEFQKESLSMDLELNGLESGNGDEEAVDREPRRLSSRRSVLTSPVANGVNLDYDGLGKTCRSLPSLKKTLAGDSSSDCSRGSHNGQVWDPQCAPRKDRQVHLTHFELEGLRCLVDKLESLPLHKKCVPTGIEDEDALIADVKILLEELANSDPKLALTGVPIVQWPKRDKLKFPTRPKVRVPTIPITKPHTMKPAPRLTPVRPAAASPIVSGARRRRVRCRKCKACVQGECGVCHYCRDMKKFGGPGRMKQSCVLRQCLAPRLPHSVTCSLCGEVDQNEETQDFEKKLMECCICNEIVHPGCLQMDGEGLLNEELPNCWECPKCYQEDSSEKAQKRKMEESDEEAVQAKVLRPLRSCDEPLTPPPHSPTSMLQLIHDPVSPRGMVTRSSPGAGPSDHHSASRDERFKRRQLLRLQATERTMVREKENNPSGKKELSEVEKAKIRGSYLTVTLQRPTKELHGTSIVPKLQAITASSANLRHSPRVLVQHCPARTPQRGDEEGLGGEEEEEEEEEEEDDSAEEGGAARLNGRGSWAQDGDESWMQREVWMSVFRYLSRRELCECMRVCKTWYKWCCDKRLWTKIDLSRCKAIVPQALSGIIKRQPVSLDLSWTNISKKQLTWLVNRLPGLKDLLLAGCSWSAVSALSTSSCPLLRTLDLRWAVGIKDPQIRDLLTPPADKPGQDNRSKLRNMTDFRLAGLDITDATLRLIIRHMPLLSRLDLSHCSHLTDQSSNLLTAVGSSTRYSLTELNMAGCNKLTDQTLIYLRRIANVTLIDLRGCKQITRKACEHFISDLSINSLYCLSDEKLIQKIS

KDM5D, sequence (Q9BY66 whole entry): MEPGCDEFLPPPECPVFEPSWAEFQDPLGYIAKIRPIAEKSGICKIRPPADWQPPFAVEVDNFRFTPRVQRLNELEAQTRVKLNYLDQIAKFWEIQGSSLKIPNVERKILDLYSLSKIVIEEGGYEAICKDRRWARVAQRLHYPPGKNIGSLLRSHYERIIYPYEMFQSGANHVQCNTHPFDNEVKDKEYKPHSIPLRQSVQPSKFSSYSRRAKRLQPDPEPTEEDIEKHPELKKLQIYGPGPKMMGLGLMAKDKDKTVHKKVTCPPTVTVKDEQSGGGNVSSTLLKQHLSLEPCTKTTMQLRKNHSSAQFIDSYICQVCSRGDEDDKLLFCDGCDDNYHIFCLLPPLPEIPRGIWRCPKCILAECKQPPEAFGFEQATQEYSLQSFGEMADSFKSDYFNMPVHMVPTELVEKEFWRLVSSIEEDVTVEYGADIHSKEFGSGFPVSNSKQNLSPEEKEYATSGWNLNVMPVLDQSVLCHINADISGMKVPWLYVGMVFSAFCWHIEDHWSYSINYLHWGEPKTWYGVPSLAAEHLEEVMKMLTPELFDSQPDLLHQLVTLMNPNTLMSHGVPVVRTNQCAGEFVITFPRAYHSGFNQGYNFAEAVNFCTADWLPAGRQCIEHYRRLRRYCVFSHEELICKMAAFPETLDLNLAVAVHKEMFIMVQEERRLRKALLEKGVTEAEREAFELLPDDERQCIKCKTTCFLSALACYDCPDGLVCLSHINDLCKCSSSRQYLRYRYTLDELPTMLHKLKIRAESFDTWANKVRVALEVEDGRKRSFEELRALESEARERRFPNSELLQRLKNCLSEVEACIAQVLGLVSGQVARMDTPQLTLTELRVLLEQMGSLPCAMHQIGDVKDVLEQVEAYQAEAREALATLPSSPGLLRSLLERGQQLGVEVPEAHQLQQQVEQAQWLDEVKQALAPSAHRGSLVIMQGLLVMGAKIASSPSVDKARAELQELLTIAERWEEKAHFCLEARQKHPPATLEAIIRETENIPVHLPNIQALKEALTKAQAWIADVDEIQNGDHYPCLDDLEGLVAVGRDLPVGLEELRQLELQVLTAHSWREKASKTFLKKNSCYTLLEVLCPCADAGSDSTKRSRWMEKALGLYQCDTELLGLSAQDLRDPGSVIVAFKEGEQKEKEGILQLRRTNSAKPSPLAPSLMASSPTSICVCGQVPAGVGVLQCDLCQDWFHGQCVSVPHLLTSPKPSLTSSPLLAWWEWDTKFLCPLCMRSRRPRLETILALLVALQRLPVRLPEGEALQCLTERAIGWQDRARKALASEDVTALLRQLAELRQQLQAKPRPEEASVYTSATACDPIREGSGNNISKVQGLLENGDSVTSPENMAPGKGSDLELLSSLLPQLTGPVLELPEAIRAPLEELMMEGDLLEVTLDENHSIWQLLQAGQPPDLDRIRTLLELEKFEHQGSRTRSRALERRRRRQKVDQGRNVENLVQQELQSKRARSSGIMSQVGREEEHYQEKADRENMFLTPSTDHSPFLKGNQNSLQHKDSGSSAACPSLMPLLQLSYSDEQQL

With `CCN(CCN(C)C)C(=O)CNCc1cc(C(=O)O)ccn1` [KDOAM-20] the IC50 (KDM5D) was 19 ± 4 nM.
For `Clc1ccc(N/N=C(\c2ccccc2)c2ccccn2)nc1` [JIB-04 E], the IC50 (KDM5B) is given as 561 nM, the IC50 (KDM5C) is given as 622 ± 50 nM and the IC50 (KDM3A) is given as 650 ± 50 nM. The IC50 (KDM2A) was 1200 ± 10 nM.

Source: paper PMC5333395, “Assessing histone demethylase inhibitors in cells: lessons learned” (Epigenetics & Chromatin, 2017)
